Experimental data reported in BindingDB's records for doi:10.1080/1475636021000005721 (Universit&Eacute, 2002).

Target: Serotonin N-acetyltransferase (Homo sapiens, UniProt Q16613)
Assay: AANAT Assay
Conditions: pH 6.8; 37 °C
Experimental: The compounds were evaluated in a human serotonin N-acetyltransferase assay.

Chain of Serotonin N-acetyltransferase (Q16613 whole entry): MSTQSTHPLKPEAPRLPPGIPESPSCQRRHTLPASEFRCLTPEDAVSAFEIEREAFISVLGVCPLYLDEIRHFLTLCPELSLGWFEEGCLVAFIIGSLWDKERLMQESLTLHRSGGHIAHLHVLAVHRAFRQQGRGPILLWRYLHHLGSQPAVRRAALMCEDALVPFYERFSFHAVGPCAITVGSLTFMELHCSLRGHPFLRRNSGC

| IC50 [nM] | SMILES |
| --- | --- |
| 1430 | O=C(CBr)NCCc1c[nH]c2ccccc12 |
| 40000 | COc1ccc2occ(CCNC(=O)CBr)c2c1 [AANAT Inhibitor, 8c] |
| 610 | COc1ccc2scc(CCNC(=O)CBr)c2c1 [AANAT Inhibitor, 8d] |
| 680 | O=C(CBr)NCCc1csc2ccccc12 [AANAT Inhibitor, 8e] |
| 3780 | O=C(CBr)NCCc1csc2ccc(Br)cc12 [AANAT Inhibitor, 8g] |
| 390 | O=C(CBr)NCCc1csc2ccc(F)cc12 [AANAT Inhibitor, 8h] |
| 700 | CCc1ccc2scc(CCNC(=O)CBr)c2c1 [AANAT Inhibitor, 8i] |
| 180 | O=C(CBr)NCCc1csc2ccc(O)cc12 [AANAT Inhibitor, 12d] |
